Holding throughout (format): cell-based
The subject of data set [1] is iPro T cells. Nature of the data set: Recovery of iPro T cells from freeze/thaw and culture in stage 5 medium. Particulars: pre-treated with UM729 at 1 μM in stage 4 medium; 7 days in stage 5 medium.
Data set [2] relates to iPro T cells. Nature of the data set: T cell maturation in stage 5 medium after stage 4 pre-treatment, flow cytometry. Particulars: pre-treated with UM729 21 days in stage 4 medium, then 14 days stage 5 medium without UM729. The procedure:
On day 21, 35 and 42 of culture iPro T Cells were seeded onto fresh SCT matrix (2.5 μl/cm^2) at a density of 250,000 cells per cm^2. Cells were cultured in T-Cell maturation media either with or without UM729 (0.25-5 μM), with demi-media changes every 3 days for 2 weeks. After 2 weeks of maturation the cells were counted using the NC-250 and phenotyped by flow cytometry using the panel in Table 1. On the day of the assay, the cells were counted, washed twice in FACS Buffer and phenotyped by flow cytometry for T-cell markers.
Background: A flow cytometer gives signals particle by particle.

Data set [3] has as its system iPro T cells. As to the kind of experiment: Expansion of iPro T cells in stage 4 medium. The note with it: UM729 0.25 μM to 1.0 μM in stage 4 medium, up to 42 days. The procedure:
(§1) HPC were then thawed and seeded at 5000 cells per cm^2 in 1 ml of lymphoid progenitor (stage 4; LP) media on the standard SCT's coating (2.5 μL/cm^2). UM729 was added to the culture media in a range of concentrations from 0.25 μM-5 μM. On day 3, 1 mL of LP media with the required concentration of UM729 was added and further demi-media changes were carried out every 3 days, with the required media concentration. Every 14 days cells were removed from culture and counted using NC-250. The cells were then replated on to fresh SCT matrix and UM729 was added to the media at the relevant concentration. Cells were removed from the cultures after 21, 35 and 42 days and phenotyped using the panel in Table 1. At these timepoints cells were either continued on in lymphoid progenitor media with the relevant UM729 concentrations or transferred into T cell maturation conditions.

The subject of data set [4] is haematopoietic progenitor cells (iPSC derived CD34+ cells). Nature of the data set: Viability and proliferation of HPCs / iPro T cells cultured with pyrimidoindole compound (cell counts, NC-250). Particulars: for viability of cells: UM729 0.25 μM to 1.0 μM (up to 1 μM). The procedure: as §1, with “iPSC cells (HCP1324_c1A12) were differentiated to day 16, using our in-house Proprietary media. HPC (CD34+ cells) were isolated using MACS and a cryopreserved bank of these cells was created for further differentiation into iT-Cells. HPC” for “HPC”, “conditions. On day 21, 35 and 42 of culture iPro T Cells were seeded onto fresh SCT matrix (2.5 μl/cm^2) at a density of 250,000 cells per cm^2. Cells were cultured in T-Cell maturation media either with or without UM729 (0.25-5 μM), with demi-media changes every 3 days for 2 weeks. After 2 weeks of maturation the cells were counted using the NC-250 and phenotyped by flow cytometry using the panel in Table 1.” for “conditions.”

The test system is the same in data set [5]. Nature of the data set: Flow cytometry phenotyping of HPCs differentiated in lymphoid progenitor (stage 4) medium with pyrimidoindole compound. On the procedure:
as §1, with “conditions. On the day of the assay, the cells were counted, washed twice in FACS Buffer and phenotyped by flow cytometry for T-cell markers.” for “conditions.”

Where [6] appears, read: UM729 5.0 μM or higher, 21 days.
The mark [7] stands for this setting: UM729 0.25 μM to 1.0 μM in stage 4 media, 21 days.
[8] abbreviates: UM729 0.25 μM to 1.0 μM, 21 days.
[9] abbreviates: UM729 0.25 μM to 1.0 μM, 35 days (UM729 also in stage 5 cultures).

“Also recorded” adds a separate entry of the source.

On to `COC(=O)c1ccc2c(c1)[nH]c1ncnc(NCCCN3CCCCC3)c12` [UM729, methyl 4-(3-piperidin-1-ylpropylamino)-9H-pyrimido[4,5-b]indole-7-carboxylate], for which, in the data set on iPro T cells [1], the “cell proliferation after culture in stage 5 medium (FIG. 12B)” value was “increased cell proliferation” and the “viability after culture in stage 5 medium (FIG. 12A)” value was “higher viability”. In the data set on iPro T cells [2], the “differentiation to CD4+CD8+ double positive T cells after removal of UM729 (FIG. 10)” value was “found to be removed; also recorded: will become CD4+CD8+ double positive”. Further, in the data set on iPro T cells [3], the “expansion of iPro T cells (FIG. 9)” value is reported as “supported over 42 days; also recorded: greatly enhances the expansion of iProT cells”. For the same molecule, the viability of cells result in data set [4] (21 days) was “maintain viability; also recorded: not to affect the viability”. Moreover, in data set [4] (35 days), the viability of cells entry is given as “not to affect the viability; also recorded: maintain viability”. In data set [4] (setting [6]), the “proliferation of total cells” value is “reduced or ceases; also recorded: ceased” and the “viability of total cells” value is “reduced or ceases; also recorded: comparably low”. The cytotoxic effects result in data set [4] (UM729 at concentrations of 5 μM and above) is reported as “cytotoxic effects were observed”. Also, in data set [5] (setting [7]), the “differentiation into / yield of CD7+CD5+ iPro T cells (FIG. 4A)” value is listed as “promotes differentiation into iProT cells; also recorded: increase the yield” and the “percentage of CD7+CD5+ iPro T cells (FIG. 4B)” value was “enriches the percentage of iProT cells; also recorded: enrich the percentage”. In data set [5] (UM729 0.25 μM to 1.0 μM in stage 4 medium, 21 days), the “fraction of CD8+CD4+ double positive cells (further differentiation to DP T cells)” value is recorded as “decreases the fraction of CD8+CD4+ double positive cells; also recorded: inhibited further differentiation”. In data set [5] (setting [8]), the “lymphoid fraction of the cells” value is on record as “increases the lymphoid fraction” and the “myeloid fraction of the cells (myeloid cellular contamination)” value is given as “reduces the myeloid fraction; also recorded: reduce this cellular contamination in a dose dependent manner”. In data set [5] (setting [9]), the “differentiation into / percentage of CD7+CD5+ iPro T cells (FIG. 7)” value is on record as “increasing; also recorded: promotes differentiation into iProT cells” and the “fraction / development of CD8+CD4+ double positive cells (FIG. 8)” value was “inhibited in a dose dependent manner; also recorded: decreases the fraction of CD8+CD4+ double positive cells”.

The values above are taken from patent US20240327791A1, “METHODS OF T CELL PRODUCTION” (Adaptimmune Limited, priority 2021, published 2024).
